# Measured values taken from the SangsterLogP compilation.
row,SMILES,logP
1,FC(F)(F)c1cccc(N2CCNCC2)c1,2.43
2,Fc1ccc(N2CCNCC2)cc1,1.28
3,Cc1ccccc1N1CCNCC1,2.14
4,COc1ccccc1N1CCNCC1,1.09
5,c1ccc2c(N3CCNCC3)nsc2c1,2.14
6,Fc1cnc(N2CCNCC2)nc1,0.97
7,Clc1ccc(N2CCNCC2)cc1,2.01
8,Clc1cccc(N2CCNCC2)c1,2.11
9,Clc1ccccc1N1CCNCC1,2.13
10,c1cnc(N2CCNCC2)nc1,0.49
11,c1csc(N2CCNCC2)n1,0.61
12,c1ccc(N2CCNCC2)nc1,0.74
13,c1ccc2nc(N3CCNCC3)ccc2c1,2.04
